For orientation: MIC means the lowest concentration that inhibits growth of the organism. Low readings indicate a more susceptible organism, high ones a less susceptible organism.

The values that follow come from ChEMBL document CHEMBL1212748, “Patients with long-term oral carriage harbor high-persister mutants of Candida albicans” (2010).

In brackets after ≈: the same amount, converted by molar mass. Activity calls are given as the source filed them. No cut-off for these calls is given here.

The subject of test [1] is Candida albicans. Nature of the test: Antimicrobial activity against Candida albicans low-persister mutants assessed as microbial death at 10 to 100 ug/ml after 48 hrs by broth microdilution method. Type of test: functional, organism-based.
The test system of test [2] is Candida albicans. Nature of the test: Antimicrobial activity against Candida albicans high-persister mutants assessed as microbial death at 50 ug/ml after 48 hrs by broth microdilution method. Type of test: functional, organism-based. In general terms: Broth dilution looks for growth in wells or tubes with falling amounts of substance.
Test [3] deals with Candida albicans. Nature of the test: Antimicrobial activity against Candida albicans CAF2-1 assessed as microbial death at 10 to 100 ug/ml after 48 hrs by broth microdilution method. Type of test: functional, organism-based.
The subject of test [4] is Candida albicans. Briefly: Antimicrobial activity against Candida albicans high-persister mutants assessed as microbial death at 10 to 100 ug/ml after 48 hrs by broth microdilution method. Type of test: functional, organism-based.
Test [5] has as its system Candida albicans. Nature of the test: Antimicrobial activity against Candida albicans high-persister mutants after 48 hrs by broth microdilution method. Type of test: functional.

As for `C[C@@H]1[C@H](O)[C@@H](C)/C=C/C=C/C=C/C=C/C=C/C=C/C=C/[C@H](O[C@@H]2O[C@H](C)[C@@H](O)[C@H](N)[C@@H]2O)C[C@@H]2O[C@](O)(C[C@@H](O)C[C@@H](O)[C@H](O)CC[C@@H](O)C[C@@H](O)CC(=O)O[C@H]1C)C[C@H](O)[C@H]2C(=O)O`, the outcome with Candida albicans [1], in the test with Candida albicans [3] and in the test with Candida albicans [4] was Active. Besides, the outcome in the test on Candida albicans [2] was inactive.
With `N=C(NCCCCCCNC(=N)NC(=N)Nc1ccc(Cl)cc1)NC(=N)Nc1ccc(Cl)cc1` [CHLORHEXIDINE], inhibition of growth in the test with Candida albicans [5] (MIC) required 1.5 µg/mL (≈ 2.97 µM).
